Ends that are not written are not given here.

The test system of experiment [1] is SUM149PT cells overexpressing the EN1 cDNA (SUM149PT-EN1). Description: Cell Titer Glo cell viability assay in SUM149PT cells overexpressing the EN1 cDNA. Particulars: iPep624 72 hours. Format: cell-based, human. As for the experimental part: In the neural system it has been proposed that EN1 protects neurons from mitochondrial complex I insults. Likewise, the inventors investigated whether EN1 could play a similar role in the basal-like breast cancer cell lines. The EN1 cDNA was overexpressed in SUM149PT cells using a lentiviral vector, and the transduced cells were treated with increasing concentrations of rotenone, a mitochondrial complex I toxin, and taxol, a […].
Plasmids expressing the EN1 cDNA (Genecopoeia, vector EX-T1021-Lv07) or EN1 shRNAs (Open Biosystems, pLKO-EN1) were transfected with Gagpol-, VSVG-, and RSV-REV-coding plasmids in HEK 293T cells using Lipofectamine and Plus Reagent cationic lipids (Invitrogen, Carlsbad, Calif.) and transduction of breast cells was performed as described in Beltran, A. S. et al. Breast Cancer Res 13, R94 (2011).
All peptides were synthetized at the UNC High-Throughput Peptide Synthesis and Array Facility at UNC. Taxol, Rotenone and Halofuginone (Sigma-Aldrich, St Louis, Mo.) were dissolved in DMSO. A total of […] or 1×10^3 breast cells for peptide and drug treatment respectively, were seeded in 96-well plates. Cells were exposed for 8 hours to the peptide and 48 to 72 hours for drug treatment. The cell viability after peptide/drug treatment was assayed with the Cell Titer Glo (CTG) assay (Promega, Madison, Wis., USA).
(In general: ATP-based viability assays read luminescence as a measure of living cells.)

Experiment [2] has as its target T1, Glutamyl-Prolyl tRNA synthetase (EPRS) (Homo sapiens, UniProt P07814).
T1 construct: endogenous in cells; host or cells: SUM149PT total protein extract
The experiment can be described thus: Affinity capture immunoprecipitation with biotinylated iPeps, EPRS detection. Format: binding. Particulars: biotinylated iPep as bait, versus control peptide iPep624ΔHEX. An excerpt:
To investigate the binding partners of the iPeps in cancer cells, the inventors carried out affinity capture immunoprecipitation experiments using the biotinylated active iPep624 as bait, and the iPep624ΔHEX as negative control. They used total protein extracts from SUM149PT cells to capture endogenous proteins able to bind these peptides in vitro. Elutes were loaded in a 1D-SDS PAGE gel to visualize the enrichment of individual proteins. […] In addition, overexpression of EN1 cDNA into two different breast cell lines confirmed the interaction of the full length EN1 with the endogenous EPRS inside the cells (FIG. 6c). […]
The iPep624 and iPep624ΔHEX were coupled to a C-terminal biotin and immobilized in streptavidin-coated beads. […] Detection was performed with ECL Detection System (GE Healthcare) and quantitated using Image J v1.46 (ImageJ, NCBI).
Proteins were eluted from the streptavidin beads coated with biotinylated iPep624 or iPep624ΔHEX, resuspended with SDS PAGE sample buffer and applied to SDS-PAGE (10% acrylamide; FIG. 10). Gels were stained with Coomassie brilliant blue and select bands unique to the EN1 immunoprecipitates were excised, digested with trypsin, and the peptides were extracted and analyzed using a MALDI-TOF/TOF mass spectrometer (AB Sciex 4800 Plus). […]

T1 sequence (P07814 whole entry): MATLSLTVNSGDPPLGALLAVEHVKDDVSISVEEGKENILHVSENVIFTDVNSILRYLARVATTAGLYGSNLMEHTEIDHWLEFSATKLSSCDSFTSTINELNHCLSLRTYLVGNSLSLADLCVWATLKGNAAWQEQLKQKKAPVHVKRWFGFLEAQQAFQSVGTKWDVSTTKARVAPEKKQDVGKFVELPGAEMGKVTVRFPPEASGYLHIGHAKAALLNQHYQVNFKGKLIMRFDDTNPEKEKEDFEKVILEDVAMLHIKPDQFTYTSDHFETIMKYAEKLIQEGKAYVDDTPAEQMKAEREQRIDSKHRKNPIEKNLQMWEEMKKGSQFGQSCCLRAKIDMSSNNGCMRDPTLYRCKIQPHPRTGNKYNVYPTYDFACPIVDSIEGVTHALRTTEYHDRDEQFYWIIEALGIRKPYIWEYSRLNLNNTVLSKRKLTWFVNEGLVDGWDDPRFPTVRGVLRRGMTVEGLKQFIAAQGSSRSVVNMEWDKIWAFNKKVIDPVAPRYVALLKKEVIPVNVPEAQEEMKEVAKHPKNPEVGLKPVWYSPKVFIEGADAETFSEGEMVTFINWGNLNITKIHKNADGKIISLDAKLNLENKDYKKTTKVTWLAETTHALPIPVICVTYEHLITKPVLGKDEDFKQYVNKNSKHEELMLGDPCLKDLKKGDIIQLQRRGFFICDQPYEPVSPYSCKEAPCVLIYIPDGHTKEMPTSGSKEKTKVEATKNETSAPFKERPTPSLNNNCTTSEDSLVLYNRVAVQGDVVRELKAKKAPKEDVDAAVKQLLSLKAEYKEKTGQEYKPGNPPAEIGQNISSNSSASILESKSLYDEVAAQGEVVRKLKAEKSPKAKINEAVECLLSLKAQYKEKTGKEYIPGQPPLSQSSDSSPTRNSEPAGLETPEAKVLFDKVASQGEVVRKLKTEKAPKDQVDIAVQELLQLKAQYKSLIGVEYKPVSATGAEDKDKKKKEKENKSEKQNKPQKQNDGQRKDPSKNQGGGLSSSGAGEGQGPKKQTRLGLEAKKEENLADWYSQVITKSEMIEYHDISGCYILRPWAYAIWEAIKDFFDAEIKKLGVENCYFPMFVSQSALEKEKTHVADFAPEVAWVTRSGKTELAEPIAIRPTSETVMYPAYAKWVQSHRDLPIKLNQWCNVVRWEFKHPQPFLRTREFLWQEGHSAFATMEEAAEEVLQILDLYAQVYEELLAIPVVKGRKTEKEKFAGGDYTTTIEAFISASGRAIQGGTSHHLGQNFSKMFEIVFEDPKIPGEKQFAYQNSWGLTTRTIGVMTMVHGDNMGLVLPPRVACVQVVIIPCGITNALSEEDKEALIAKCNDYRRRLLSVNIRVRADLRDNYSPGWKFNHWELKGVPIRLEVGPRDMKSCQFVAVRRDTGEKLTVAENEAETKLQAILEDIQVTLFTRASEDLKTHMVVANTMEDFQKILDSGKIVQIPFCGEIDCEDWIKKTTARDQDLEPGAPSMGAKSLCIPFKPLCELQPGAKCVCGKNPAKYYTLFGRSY

Turning to KKKRKVTDSQQPLVWPAWVYCTRYSDRPS [iPep624], the “cell viability defect after ectopic transfection of the EN1 cDNA” value in experiment [1] is “rescued”. Besides, in experiment [2], the “binding of EPRS from SUM149PT extracts” value was “preferential binding interaction”.

Values taken from US10201610B2, “Interference peptides and use thereof” (The University of Western Australia, priority 2014, dated 2019).
